compound: C[C@@]1(C(=O)Nc2ccc(F)nc2)CCCN1c1nc(Nc2cc(C3CC3)n[nH]2)c2cccn2n1 + O=C(c1cc(Cc2n[nH]c(=O)c3ccccc23)ccc1F)N1CCN(C(=O)C2CC2)CC1 [Olaparib] (partner 8 µM); test: relative viability (nuclei count vs DMSO), 5 days (fraction); higher = more cells survive; settings: first compound 0.04 µM
Method in brief: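 Five library-drug doses in √10 steps were combined with a fixed anchor-drug dose, or a single drug was given alone, by pin tool to lung cancer cell lines in 1536-well plates the day after seeding. Nuclei were stained and counted after 5 days. Relative viability is the nuclei count in treated wells over that in vehicle wells, taken as the median of duplicate plates.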

First: HCC-366
Second: NCI-H1666
The relative viability of the first is lower: 0.364 for the first, 0.707 for the second.

First: NCI-H596
Second: LK-2
The relative viability of the first is higher: 0.714 for the first, 0.38 for the second.

Compared with NCI-H2087, NCI-H1648 is lower in relative viability: 0.593 for the first, 0.446 for the second.

Compared with SK-MES-1, H3255 is lower in relative viability: 0.718 for the first, 0.638 for the second.

Compared with COR-L23, COR-L 105 is higher in relative viability: 0.315 for the first, 0.74 for the second.

First: IA-LM
Second: LOU-NH91
The relative viability of the first is lower: 0.835 for the first, 0.932 for the second.

First: ChaGo-K-1
Second: NCI-H2170
The relative viability of the first is lower: 0.414 for the first, 0.568 for the second.

Compared with NCI-H2405, HOP-62 is lower in relative viability: 0.808 for the first, 0.39 for the second.

Going from HCC-44 to A549, the relative viability falls from 0.94 to 0.293.

Going from NCI-H522 to LU99A, the relative viability falls from 0.66 to 0.292.

First: BEN
Second: HARA
The relative viability of the first is higher: 1.09 for the first, 0.81 for the second.

First: SW 900
Second: HCC-78
The relative viability of the first is higher: 1.02 for the first, 0.661 for the second.

Compared with NCI-H322M, LCLC-97TM1 is lower in relative viability: 0.473 for the first, 0.142 for the second.

Compared with NCI-H2009, A-427 is lower in relative viability: 0.718 for the first, 0.666 for the second.

Compared with NCI-H441, NCI-H661 is higher in relative viability: 0.373 for the first, 0.742 for the second.

First: NCI-H1734
Second: NCI-H460
The relative viability of the first is higher: 0.506 for the first, 0.495 for the second.

Going from NCI-H2347 to SK-LU-1, the relative viability falls from 0.536 to 0.414.

First: NCI-H1395
Second: 201T
The relative viability of the first is lower: 0.505 for the first, 0.755 for the second.

First: NCI-H1915
Second: HCC-827
The relative viability of the first is lower: 0.266 for the first, 0.663 for the second.

First: LXF-289
Second: NCI-H23
The relative viability of the first is higher: 1.07 for the first, 0.252 for the second.

Compared with NCI-H1299, NCI-H647 is lower in relative viability: 0.976 for the first, 0.607 for the second.

Going from CAL-12T to NCI-H1651, the relative viability falls from 0.729 to 0.2.

Going from EPLC-272H to NCI-H2228, the relative viability falls from 0.792 to 0.767.

First: NCI-H1792
Second: NCI-H1355
The relative viability of the first is lower: 0.194 for the first, 0.661 for the second.

Going from NCI-H3122 to NCI-H1437, the relative viability rises from 0.633 to 0.666.

Going from NCI-H1755 to NCI-H2023, the relative viability falls from 0.93 to 0.456.

Going from HCC-15 to NCI-H1793, the relative viability rises from 0.663 to 0.751.

Going from PC-14 to EKVX, the relative viability rises from 0.368 to 0.874.

Compared with LC-2-ad, NCI-H1944 is lower in relative viability: 0.676 for the first, 0.413 for the second.

First: NCI-H1975
Second: RERF-LC-KJ
The relative viability of the first is lower: 0.653 for the first, 0.892 for the second.

Compared with ABC-1, NCI-H358 is lower in relative viability: 0.664 for the first, 0.477 for the second.

Compared with NCI-H650, PC-3 [JPC-3] is higher in relative viability: 0.372 for the first, 1.23 for the second.

same assay, conditions: first compound 0.1265 µM

Going from NCI-H2342 to NCI-H727, the relative viability rises from 0.449 to 0.506.

Going from NCI-H1650 to EBC-1, the relative viability falls from 0.846 to 0.666.

Compared with NCI-H1703, NCI-H1993 is higher in relative viability: 0.428 for the first, 0.88 for the second.

Going from SW 1573 to NCI-H838, the relative viability rises from 0.409 to 0.636.

First: LCLC-103H
Second: NCI-H520
The relative viability of the first is higher: 0.655 for the first, 0.33 for the second.

Compared with NCI-H2126, EMC-BAC-2 is lower in relative viability: 0.643 for the first, 0.368 for the second.

First: NCI-H2085
Second: Calu-6
The relative viability of the first is higher: 0.748 for the first, 0.644 for the second.

Going from HCC-366 to NCI-H1666, the relative viability rises from 0.256 to 0.73.

Going from NCI-H596 to LK-2, the relative viability falls from 0.697 to 0.287.

First: NCI-H2087
Second: NCI-H1648
The relative viability of the first is lower: 0.483 for the first, 0.746 for the second.

Compared with SK-MES-1, H3255 is lower in relative viability: 0.702 for the first, 0.643 for the second.

First: COR-L23
Second: COR-L 105
The relative viability of the first is lower: 0.367 for the first, 0.604 for the second.

First: IA-LM
Second: LOU-NH91
The relative viability of the first is lower: 0.81 for the first, 0.945 for the second.

Compared with ChaGo-K-1, NCI-H2170 is higher in relative viability: 0.398 for the first, 0.556 for the second.

Going from NCI-H2405 to HOP-62, the relative viability falls from 0.611 to 0.172.

First: HCC-44
Second: A549
The relative viability of the first is higher: 0.879 for the first, 0.17 for the second.

Compared with NCI-H522, LU99A is lower in relative viability: 0.588 for the first, 0.227 for the second.

Going from BEN to HARA, the relative viability falls from 1.14 to 0.74.

Going from SW 900 to HCC-78, the relative viability rises from 0.895 to 1.12.

Compared with NCI-H322M, LCLC-97TM1 is lower in relative viability: 0.552 for the first, 0.133 for the second.

Compared with NCI-H2009, A-427 is higher in relative viability: 0.657 for the first, 0.663 for the second.

Compared with NCI-H441, NCI-H661 is higher in relative viability: 0.368 for the first, 0.849 for the second.

Compared with NCI-H1734, NCI-H460 is lower in relative viability: 0.405 for the first, 0.334 for the second.

Compared with NCI-H2347, SK-LU-1 is lower in relative viability: 0.569 for the first, 0.361 for the second.

Compared with NCI-H1395, 201T is higher in relative viability: 0.437 for the first, 0.725 for the second.

Compared with NCI-H1915, HCC-827 is higher in relative viability: 0.257 for the first, 0.769 for the second.

First: LXF-289
Second: NCI-H23
The relative viability of the first is higher: 1.1 for the first, 0.227 for the second.

Compared with NCI-H1299, NCI-H647 is lower in relative viability: 0.97 for the first, 0.487 for the second.

Going from CAL-12T to NCI-H1651, the relative viability falls from 0.751 to 0.183.

Compared with EPLC-272H, NCI-H2228 is lower in relative viability: 0.513 for the first, 0.503 for the second.

First: NCI-H1792
Second: NCI-H1355
The relative viability of the first is lower: 0.175 for the first, 0.59 for the second.

Compared with NCI-H3122, NCI-H1437 is higher in relative viability: 0.571 for the first, 0.631 for the second.

First: NCI-H1755
Second: NCI-H2023
The relative viability of the first is higher: 0.73 for the first, 0.422 for the second.

Going from HCC-15 to NCI-H1793, the relative viability rises from 0.614 to 0.668.

Compared with PC-14, EKVX is higher in relative viability: 0.335 for the first, 0.644 for the second.

First: LC-2-ad
Second: NCI-H1944
The relative viability of the first is higher: 0.664 for the first, 0.394 for the second.

First: NCI-H1975
Second: RERF-LC-KJ
The relative viability of the first is lower: 0.749 for the first, 0.858 for the second.

First: ABC-1
Second: NCI-H358
The relative viability of the first is higher: 0.584 for the first, 0.311 for the second.

Going from NCI-H650 to PC-3 [JPC-3], the relative viability rises from 0.326 to 0.798.

same assay, conditions: first compound 0.4 µM

First: NCI-H2342
Second: NCI-H727
The relative viability of the first is lower: 0.336 for the first, 0.476 for the second.

Compared with NCI-H1650, EBC-1 is lower in relative viability: 0.678 for the first, 0.61 for the second.

Going from NCI-H1703 to NCI-H1993, the relative viability rises from 0.421 to 0.492.

Work on SW 1573 yielded a relative viability of 0.341.

From the supplement of paper PMC10307832
